According to BindingDB's records for doi:10.1016/j.bmcl.2015.11.049 (Genomics Institute of The Novartis Research Foundation, 2016):

Columns and labels:
[1] = Inhibition of […] (unknown origin) expressed in mouse BaF3 cells assessed as reduction in cell proliferation incubated for 2 to 3 days by Bright-Glo luciferase assay
[2] = Inhibition of […] (unknown origin) expressed in human KARPAS-299 cells assessed as reduction in cell growth
[3] = Inhibition of PDK1 (unknown origin)
[4] = Inhibition of Tel fused InsR (unknown origin) expressed in mouse BaF3 cells assessed as reduction in cell proliferation incubated for 2 to 3 days by Bright-Glo luciferase assay

| SMILES | IC50 [1] [nM] | IC50 [2] [µM] | IC50 [3] [µM] | IC50 [4] [nM] |
| --- | --- | --- | --- | --- |
| Cc1cc(Nc2nc(Nc3ccccc3S(=O)(=O)C(C)C)c3cccnc3n2)c(OC(C)C)cc1C1CCNCC1 | 3170 | – | – | – |
| Cc1cc(Nc2nc(Nc3ccccc3S(=O)(=O)C(C)C)c3ccccc3n2)c(OC(C)C)cc1C1CCN(C)CC1 | 1080 | – | – | – |
| Cc1cc(Nc2cc(Nc3ccccc3S(=O)(=O)C(C)C)c3cc[nH]c3n2)c(OC(C)C)cc1C1CCN(C)CC1 | 1430 | 7.31 | – | – |
| Cc1cc(Nc2nc(Nc3ccccc3S(=O)(=O)C(C)C)c3c(N)n[nH]c3n2)c(OC(C)C)cc1C1CCN(C)CC1 | 150 | – | – | – |
| Cc1cc2c(Nc3ccccc3S(=O)(=O)C(C)C)nc(Nc3cc(C)c(C4CCN(C)CC4)cc3OC(C)C)nc2[nH]1 | 1300 | – | – | – |
| Cc1cc(Nc2nc(Nc3ccccc3S(=O)(=O)C(C)C)c3cc[nH]c3n2)c(OC(C)C)cc1C1CCNCC1 | 47 | – | – | – |

Compounds with a lower IC50 [1], results first:

| IC50 [1] [nM] | IC50 [2] [µM] | IC50 [3] [µM] | IC50 [4] [nM] | SMILES |
| --- | --- | --- | --- | --- |
| 33 | – | – | – | Cc1cc(Nc2nc(Nc3ccccc3S(=O)(=O)C(C)C)c3cn[nH]c3n2)c(OC(C)C)cc1C1CCNCC1 |
| 20 | 0.026 | > 10 | 429 | Cc1cc(Nc2nc(Nc3ccccc3S(=O)(=O)C(C)C)c3c(C)[nH]nc3n2)c(OC(C)C)cc1C1CCN(C)CC1 [US8592432, 34] |
| 13 | – | – | – | Cc1cc(Nc2nc(Nc3ccccc3S(=O)(=O)C(C)C)c3cn[nH]c3n2)c(OC(C)C)cc1C1CCN(C)CC1 |
